Laboratory results: publication PMC4579270, “Identification and Characterization of an Irreversible Inhibitor of CDK2” (Chemistry & Biology, 2015)

Key:
Test in all cases: Dundee protein kinase screen
Assay type in all cases: biochemical
CSK = CSK (Homo sapiens, UniProt P41240); conditions: read-out: %Remaining activity at 1µM NU6300
Description: (§1) Prior to determining its cellular activity, we carried out a screen to assess its selectivity against a panel of 131 protein kinases under conditions that would not distinguish between a reversible or irreversible mode of action. […] These 13 kinases and 29 additional kinases, selected for their known sensitivity to other inhibitors within the purine series, were then tested in a modified screening format in which the assay was repeated following a 4-hr pre-incubation (Table S3B). […] However, conformational flexibility around the active site may promote such an interaction with a residue from another part of the structure ([Martin et al., 2012]).
(§2) Table S3, Related to Figure 4. NCL-0006300 protein kinase selectivity. (A) NU6300 was tested at a single concentration of 1µM against 131 protein kinases present in a Dundee protein kinase screen (Bain et al., 2007). Values given are % activity remaining and are the average of duplicate measurements: 0-25% (red), 26-50% (yellow), 51-80% (black) and above 81% (green). The kinase domain sequences (as defined by UniProt) of […]
(§3) have a lysine residue at a position close to CDK2 Lys88 or Lys89. However, in the structure of tyrosine-protein kinase BTK (PDB ID: 3GEN) the residue equivalent to CDK2 Asp86 is Cys481 and therefore there is the potential for a covalent adduct to be formed through this side chain. […]

IRAK4 = IRAK4 (Homo sapiens, UniProt Q9NWZ3); conditions: IRAK4, 1µM; read-out: %Remaining activity at 1µM NU6300
Description: as §1, §2, §3

LKB1 = LKB1 (Homo sapiens, UniProt Q15831); conditions: LKB1, 1µM; read-out: %Remaining activity at 1µM NU6300
Description: as §1, §2, §3

BTK = BTK (Homo sapiens, UniProt Q06187); conditions: read-out: %Remaining activity at 1µM NU6300
Description: as §1, §2, §3

Aurora A = biological target: T1, Aurora A (Homo sapiens, UniProt O14965); conditions: read-out: %Remaining activity at 1µM NU6300
T1 sequence (O14965 1-403): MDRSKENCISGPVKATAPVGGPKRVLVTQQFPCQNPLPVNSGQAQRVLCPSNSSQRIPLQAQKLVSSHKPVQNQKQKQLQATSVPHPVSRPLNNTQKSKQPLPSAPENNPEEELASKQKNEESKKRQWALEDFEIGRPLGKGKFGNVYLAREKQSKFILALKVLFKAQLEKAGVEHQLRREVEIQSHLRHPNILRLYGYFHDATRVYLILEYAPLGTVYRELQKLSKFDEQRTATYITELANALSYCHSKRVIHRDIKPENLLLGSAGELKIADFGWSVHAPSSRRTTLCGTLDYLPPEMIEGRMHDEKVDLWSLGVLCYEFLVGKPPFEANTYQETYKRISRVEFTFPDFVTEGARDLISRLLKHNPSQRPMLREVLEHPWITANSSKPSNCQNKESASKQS
Description: as §1, §2, §3

DDR2 = DDR2 (Homo sapiens, UniProt Q16832); conditions: DDR2, 1µM; read-out: %Remaining activity at 1µM NU6300
Description: as §1, §2, §3

CHK1 = biological target: T2, CHK1 (Homo sapiens, UniProt O14757); conditions: CHK1, 1µM; read-out: %Remaining activity at 1µM NU6300
T2 sequence (O14757 1-476): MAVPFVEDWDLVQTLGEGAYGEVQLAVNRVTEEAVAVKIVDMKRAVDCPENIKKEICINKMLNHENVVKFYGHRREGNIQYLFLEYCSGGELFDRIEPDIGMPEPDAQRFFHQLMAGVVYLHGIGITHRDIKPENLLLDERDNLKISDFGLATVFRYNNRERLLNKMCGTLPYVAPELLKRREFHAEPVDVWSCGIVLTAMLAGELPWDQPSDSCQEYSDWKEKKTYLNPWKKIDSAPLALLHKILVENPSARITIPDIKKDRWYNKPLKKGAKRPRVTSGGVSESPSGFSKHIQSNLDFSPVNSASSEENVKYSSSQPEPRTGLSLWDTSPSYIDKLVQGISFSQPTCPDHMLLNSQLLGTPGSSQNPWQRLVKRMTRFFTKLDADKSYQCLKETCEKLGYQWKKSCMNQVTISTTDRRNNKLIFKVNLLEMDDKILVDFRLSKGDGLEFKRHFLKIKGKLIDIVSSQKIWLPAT
Description: as §1, §2, §3

JNK3 = JNK3 (Homo sapiens, UniProt P53779); conditions: JNK3, 1µM; read-out: %Remaining activity at 1µM NU6300
Description: as §1, §2, §3

MARK1 = MARK1 (Homo sapiens, UniProt Q9P0L2); conditions: MARK1, 1µM; read-out: %Remaining activity at 1µM NU6300
Description: as §1, §2, §3

CK1γ2 = CK1γ2 (Homo sapiens, UniProt P78368); conditions: CK1γ2, 1µM; read-out: %Remaining activity at 1µM NU6300
Description: as §1, §2, §3

CDK2-Cyclin A = CDK2-Cyclin A (Homo sapiens, UniProt P24941); conditions: read-out: %Remaining activity at 1µM NU6300
Description: as §1, §2, §3

CAMK1 = CAMK1 (Homo sapiens, UniProt Q14012); conditions: CAMK1, 1µM; read-out: %Remaining activity at 1µM NU6300
Description: as §1, §2, §3

MARK2 = MARK2 (Homo sapiens, UniProt Q7KZI7); conditions: MARK2, 1µM; read-out: %Remaining activity at 1µM NU6300
Description: as §1, §2, §3

DYRK2 = DYRK2 (Homo sapiens, UniProt Q92630); conditions: DYRK2, 1µM; read-out: %Remaining activity at 1µM NU6300
Description: as §1, §2, §3

BRSK2 = BRSK2 (Homo sapiens, UniProt Q8IWQ3); conditions: BRSK2, 1µM; read-out: %Remaining activity at 1µM NU6300
Description: as §1, §2, §3

MLK1 = MLK1 (Homo sapiens, UniProt P80192); conditions: MLK1, 1µM; read-out: %Remaining activity at 1µM NU6300
Description: as §1, §2, §3

IRR = IRR (Homo sapiens, UniProt P14616); conditions: read-out: %Remaining activity at 1µM NU6300
Description: as §1, §2, §3

EPH-B4 = EPH-B4 (Homo sapiens, UniProt P54760); conditions: EPH-B4, 1µM; read-out: %Remaining activity at 1µM NU6300
Description: as §1, §2, §3

IKKb = IKKb (Homo sapiens, UniProt O14920); conditions: read-out: %Remaining activity at 1µM NU6300
Description: as §1, §2, §3

MARK2, sequence (Q7KZI7 whole entry): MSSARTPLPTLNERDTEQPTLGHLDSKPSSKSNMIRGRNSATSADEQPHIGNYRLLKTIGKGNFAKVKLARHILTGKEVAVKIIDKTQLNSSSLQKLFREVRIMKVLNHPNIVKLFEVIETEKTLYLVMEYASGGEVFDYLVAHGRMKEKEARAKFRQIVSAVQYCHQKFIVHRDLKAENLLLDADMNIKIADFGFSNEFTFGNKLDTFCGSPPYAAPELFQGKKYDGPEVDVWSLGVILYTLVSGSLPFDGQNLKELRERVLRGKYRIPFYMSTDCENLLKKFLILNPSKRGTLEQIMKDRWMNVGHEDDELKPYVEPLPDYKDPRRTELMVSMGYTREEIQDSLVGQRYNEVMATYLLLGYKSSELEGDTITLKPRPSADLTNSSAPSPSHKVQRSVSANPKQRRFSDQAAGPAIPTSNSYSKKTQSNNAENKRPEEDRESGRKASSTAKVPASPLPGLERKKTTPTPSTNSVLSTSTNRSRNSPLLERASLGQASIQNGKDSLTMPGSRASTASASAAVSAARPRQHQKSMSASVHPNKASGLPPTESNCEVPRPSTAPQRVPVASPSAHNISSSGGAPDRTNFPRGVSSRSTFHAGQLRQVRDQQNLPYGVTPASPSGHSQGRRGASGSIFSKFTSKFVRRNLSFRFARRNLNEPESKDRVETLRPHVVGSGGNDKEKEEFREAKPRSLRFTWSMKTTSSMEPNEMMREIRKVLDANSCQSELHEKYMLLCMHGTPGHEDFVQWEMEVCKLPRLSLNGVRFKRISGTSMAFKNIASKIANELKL
CK1γ2, sequence (P78368 whole entry): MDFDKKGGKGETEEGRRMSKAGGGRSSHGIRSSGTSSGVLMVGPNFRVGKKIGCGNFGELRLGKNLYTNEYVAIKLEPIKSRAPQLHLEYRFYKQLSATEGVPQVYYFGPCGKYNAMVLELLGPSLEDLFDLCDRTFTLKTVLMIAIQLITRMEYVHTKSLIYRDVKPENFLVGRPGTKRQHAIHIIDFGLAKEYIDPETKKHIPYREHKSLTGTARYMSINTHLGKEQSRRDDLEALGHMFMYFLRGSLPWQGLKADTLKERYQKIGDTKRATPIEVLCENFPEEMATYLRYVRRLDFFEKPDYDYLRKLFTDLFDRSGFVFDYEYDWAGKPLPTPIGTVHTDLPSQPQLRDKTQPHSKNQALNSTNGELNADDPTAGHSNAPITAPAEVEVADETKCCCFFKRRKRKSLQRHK
DYRK2, sequence (Q92630 whole entry): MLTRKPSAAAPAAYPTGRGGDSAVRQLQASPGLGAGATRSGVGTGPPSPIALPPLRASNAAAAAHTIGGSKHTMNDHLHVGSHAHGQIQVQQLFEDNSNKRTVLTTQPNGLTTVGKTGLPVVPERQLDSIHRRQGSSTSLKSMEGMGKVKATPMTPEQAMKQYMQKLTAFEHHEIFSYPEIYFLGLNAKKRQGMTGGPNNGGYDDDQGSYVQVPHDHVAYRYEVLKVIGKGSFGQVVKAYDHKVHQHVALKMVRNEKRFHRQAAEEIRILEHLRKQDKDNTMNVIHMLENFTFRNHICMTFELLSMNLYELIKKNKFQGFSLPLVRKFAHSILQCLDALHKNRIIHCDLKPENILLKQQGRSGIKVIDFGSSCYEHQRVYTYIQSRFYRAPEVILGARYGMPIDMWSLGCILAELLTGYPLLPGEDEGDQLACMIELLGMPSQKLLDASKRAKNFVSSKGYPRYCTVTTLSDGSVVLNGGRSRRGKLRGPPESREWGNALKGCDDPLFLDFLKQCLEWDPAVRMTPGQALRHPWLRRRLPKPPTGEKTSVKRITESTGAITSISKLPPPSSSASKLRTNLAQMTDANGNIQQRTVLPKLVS
MARK1, sequence (Q9P0L2 whole entry): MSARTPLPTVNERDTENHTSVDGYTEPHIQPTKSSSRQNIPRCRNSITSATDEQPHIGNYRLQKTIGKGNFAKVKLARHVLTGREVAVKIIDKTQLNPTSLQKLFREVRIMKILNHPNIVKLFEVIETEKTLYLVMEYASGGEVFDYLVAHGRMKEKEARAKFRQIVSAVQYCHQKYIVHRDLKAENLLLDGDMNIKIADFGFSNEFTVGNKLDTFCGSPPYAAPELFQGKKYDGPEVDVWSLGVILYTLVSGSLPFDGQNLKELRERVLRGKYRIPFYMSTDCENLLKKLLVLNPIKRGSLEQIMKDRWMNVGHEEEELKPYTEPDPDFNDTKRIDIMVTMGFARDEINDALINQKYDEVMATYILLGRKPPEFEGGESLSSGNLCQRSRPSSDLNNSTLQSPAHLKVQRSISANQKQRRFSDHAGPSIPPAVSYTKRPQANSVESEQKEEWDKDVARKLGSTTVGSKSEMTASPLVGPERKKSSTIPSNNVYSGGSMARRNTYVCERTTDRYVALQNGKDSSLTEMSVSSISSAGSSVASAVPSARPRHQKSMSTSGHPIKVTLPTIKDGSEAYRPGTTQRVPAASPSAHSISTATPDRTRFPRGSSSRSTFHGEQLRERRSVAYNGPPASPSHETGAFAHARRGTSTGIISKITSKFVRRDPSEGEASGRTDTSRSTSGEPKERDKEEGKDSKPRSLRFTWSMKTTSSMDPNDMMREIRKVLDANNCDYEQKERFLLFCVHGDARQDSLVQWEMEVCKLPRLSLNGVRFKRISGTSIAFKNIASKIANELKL
EPH-B4, sequence (P54760 16-987): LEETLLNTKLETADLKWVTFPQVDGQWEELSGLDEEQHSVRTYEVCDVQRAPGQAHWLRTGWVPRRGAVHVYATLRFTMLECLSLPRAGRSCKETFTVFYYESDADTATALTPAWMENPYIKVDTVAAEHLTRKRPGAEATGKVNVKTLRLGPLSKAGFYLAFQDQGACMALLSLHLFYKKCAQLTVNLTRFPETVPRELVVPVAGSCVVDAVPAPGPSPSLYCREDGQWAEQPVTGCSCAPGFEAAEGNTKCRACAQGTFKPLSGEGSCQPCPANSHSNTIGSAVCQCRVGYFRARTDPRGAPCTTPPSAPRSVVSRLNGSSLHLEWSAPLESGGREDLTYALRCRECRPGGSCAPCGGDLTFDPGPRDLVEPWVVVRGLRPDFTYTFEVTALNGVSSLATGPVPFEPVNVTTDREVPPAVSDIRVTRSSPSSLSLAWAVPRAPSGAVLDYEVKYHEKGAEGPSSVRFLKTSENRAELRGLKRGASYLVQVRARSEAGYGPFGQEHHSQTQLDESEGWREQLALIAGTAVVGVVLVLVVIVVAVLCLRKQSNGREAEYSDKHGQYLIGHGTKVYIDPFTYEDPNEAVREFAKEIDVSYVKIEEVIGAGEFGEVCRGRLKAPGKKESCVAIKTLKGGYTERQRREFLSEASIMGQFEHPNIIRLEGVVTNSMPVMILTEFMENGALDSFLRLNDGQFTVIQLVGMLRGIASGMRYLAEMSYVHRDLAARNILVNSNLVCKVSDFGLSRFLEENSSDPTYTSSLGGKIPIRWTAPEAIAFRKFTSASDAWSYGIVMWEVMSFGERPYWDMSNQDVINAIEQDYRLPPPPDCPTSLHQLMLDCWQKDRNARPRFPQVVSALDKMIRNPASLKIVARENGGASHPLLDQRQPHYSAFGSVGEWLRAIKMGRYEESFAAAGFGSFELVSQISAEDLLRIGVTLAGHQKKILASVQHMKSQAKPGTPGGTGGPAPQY
LKB1, sequence (Q15831 whole entry): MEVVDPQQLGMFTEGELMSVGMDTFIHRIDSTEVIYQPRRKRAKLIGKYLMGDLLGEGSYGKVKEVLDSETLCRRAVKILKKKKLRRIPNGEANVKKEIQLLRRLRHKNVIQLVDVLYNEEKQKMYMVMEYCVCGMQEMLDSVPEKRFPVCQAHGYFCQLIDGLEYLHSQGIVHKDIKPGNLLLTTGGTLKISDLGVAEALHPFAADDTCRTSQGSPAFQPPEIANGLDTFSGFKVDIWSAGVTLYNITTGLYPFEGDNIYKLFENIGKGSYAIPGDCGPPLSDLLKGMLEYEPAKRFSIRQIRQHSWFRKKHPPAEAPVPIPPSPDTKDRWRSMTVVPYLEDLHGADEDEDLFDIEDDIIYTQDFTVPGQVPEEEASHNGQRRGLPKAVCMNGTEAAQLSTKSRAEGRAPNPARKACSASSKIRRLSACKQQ
LKB1, sequence (Q7RTN6 whole entry partner): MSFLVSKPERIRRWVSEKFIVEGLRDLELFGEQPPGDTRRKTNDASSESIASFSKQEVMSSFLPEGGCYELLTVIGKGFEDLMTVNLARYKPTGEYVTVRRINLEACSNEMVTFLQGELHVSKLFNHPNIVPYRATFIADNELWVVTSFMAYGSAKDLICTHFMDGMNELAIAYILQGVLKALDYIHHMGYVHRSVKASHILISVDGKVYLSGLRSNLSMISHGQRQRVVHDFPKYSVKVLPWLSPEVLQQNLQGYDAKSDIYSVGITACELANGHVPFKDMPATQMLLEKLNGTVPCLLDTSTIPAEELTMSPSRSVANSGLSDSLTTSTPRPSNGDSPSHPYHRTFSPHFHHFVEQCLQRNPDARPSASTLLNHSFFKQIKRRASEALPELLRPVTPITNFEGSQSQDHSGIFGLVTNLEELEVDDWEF
LKB1, sequence (Q9Y376 whole entry partner): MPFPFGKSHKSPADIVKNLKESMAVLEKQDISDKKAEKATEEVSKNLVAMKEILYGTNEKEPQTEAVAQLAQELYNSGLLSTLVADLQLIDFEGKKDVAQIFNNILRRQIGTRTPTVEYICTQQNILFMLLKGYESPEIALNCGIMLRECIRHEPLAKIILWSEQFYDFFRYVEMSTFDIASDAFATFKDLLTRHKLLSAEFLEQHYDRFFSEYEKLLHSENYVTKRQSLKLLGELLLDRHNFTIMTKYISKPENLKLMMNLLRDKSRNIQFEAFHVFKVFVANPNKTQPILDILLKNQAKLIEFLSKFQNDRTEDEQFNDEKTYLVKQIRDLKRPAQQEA

SMILES: C=CS(=O)(=O)c1ccc(Nc2nc(OCC3CCCCC3)c3nc[nH]c3n2)cc1 [NU6300, 6-(cyclohexylmethoxy)-N-(4-(vinylsulfonyl)phenyl)-9H-purin-2-amine]
- remaining activity at 1 µM (CSK): 82%
- remaining activity at 1 µM (IRAK4): 78%
- remaining activity at 1 µM (LKB1): 59%
- remaining activity at 1 µM (BTK): 17%
- remaining activity at 1 µM (Aurora A): 18%
- remaining activity at 1 µM (DDR2): 60%
- remaining activity at 1 µM (CHK1): 38%
- remaining activity at 1 µM (JNK3): 37%
- remaining activity at 1 µM (MARK1): 47%
- remaining activity at 1 µM (CK1γ2): 79%
- remaining activity at 1 µM (CDK2-Cyclin A): 27%
- remaining activity at 1 µM (CAMK1): 89%
- remaining activity at 1 µM (MARK2): 69%
- remaining activity at 1 µM (DYRK2): 78%
- remaining activity at 1 µM (BRSK2): 60%
- remaining activity at 1 µM (MLK1): 8%
- remaining activity at 1 µM (IRR): 32%
- remaining activity at 1 µM (EPH-B4): 90%
- remaining activity at 1 µM (IKKb): 84%
